Test results published in ChEMBL document CHEMBL4507268 (2021).

Experiments:
[1] = target: Calcium/calmodulin-dependent protein kinase type 1G (Homo sapiens) (UniProt Q96NX5); conditions: Compound concentration 1000.0 nM
[2] = target: Alpha-1A adrenergic receptor (Homo sapiens) (UniProt P35348); conditions: Compound concentration 10.0 uM
[3] = target: Cyclin-dependent kinase 15 (Homo sapiens) (UniProt Q96Q40); conditions: Compound concentration 1000.0 nM
[4] = target: T1, Serine/threonine-protein kinase TAO2 (Homo sapiens) (UniProt Q9UL54); conditions: Compound concentration 1000.0 nM
T1 sequence (whole entry): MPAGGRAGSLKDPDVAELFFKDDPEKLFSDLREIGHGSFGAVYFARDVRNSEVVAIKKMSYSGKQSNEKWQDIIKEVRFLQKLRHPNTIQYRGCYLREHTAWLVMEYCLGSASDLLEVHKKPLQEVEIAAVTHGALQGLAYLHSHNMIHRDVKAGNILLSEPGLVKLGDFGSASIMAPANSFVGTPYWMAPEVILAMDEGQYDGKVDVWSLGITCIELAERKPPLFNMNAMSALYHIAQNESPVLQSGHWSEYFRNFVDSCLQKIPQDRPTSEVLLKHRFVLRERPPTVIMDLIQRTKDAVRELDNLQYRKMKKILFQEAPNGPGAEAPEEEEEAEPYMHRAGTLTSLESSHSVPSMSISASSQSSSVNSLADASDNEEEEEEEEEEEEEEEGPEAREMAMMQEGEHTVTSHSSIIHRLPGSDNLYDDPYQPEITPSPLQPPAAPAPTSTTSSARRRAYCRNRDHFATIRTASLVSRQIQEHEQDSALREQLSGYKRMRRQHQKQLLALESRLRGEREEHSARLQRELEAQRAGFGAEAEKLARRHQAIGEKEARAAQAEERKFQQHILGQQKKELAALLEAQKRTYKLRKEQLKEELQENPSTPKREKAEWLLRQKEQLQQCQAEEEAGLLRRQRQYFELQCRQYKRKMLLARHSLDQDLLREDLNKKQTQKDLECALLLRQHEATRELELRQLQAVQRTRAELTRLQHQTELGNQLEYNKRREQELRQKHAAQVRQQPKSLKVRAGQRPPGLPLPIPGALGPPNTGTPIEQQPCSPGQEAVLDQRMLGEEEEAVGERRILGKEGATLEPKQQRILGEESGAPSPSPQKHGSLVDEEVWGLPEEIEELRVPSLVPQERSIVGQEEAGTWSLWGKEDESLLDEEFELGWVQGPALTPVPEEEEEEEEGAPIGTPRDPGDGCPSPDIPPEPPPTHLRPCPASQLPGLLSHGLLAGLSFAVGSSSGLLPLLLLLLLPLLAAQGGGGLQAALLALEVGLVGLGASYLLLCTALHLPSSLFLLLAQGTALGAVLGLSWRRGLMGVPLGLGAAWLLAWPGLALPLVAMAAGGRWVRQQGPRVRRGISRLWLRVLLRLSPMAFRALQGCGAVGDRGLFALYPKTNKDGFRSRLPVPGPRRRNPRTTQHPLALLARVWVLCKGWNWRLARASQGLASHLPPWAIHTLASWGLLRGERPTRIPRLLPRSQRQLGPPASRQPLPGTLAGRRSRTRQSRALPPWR

[5] = target: T2, cGMP-dependent protein kinase 2 (Homo sapiens) (UniProt Q13237); conditions: Compound concentration 1000.0 nM
T2 sequence (whole entry): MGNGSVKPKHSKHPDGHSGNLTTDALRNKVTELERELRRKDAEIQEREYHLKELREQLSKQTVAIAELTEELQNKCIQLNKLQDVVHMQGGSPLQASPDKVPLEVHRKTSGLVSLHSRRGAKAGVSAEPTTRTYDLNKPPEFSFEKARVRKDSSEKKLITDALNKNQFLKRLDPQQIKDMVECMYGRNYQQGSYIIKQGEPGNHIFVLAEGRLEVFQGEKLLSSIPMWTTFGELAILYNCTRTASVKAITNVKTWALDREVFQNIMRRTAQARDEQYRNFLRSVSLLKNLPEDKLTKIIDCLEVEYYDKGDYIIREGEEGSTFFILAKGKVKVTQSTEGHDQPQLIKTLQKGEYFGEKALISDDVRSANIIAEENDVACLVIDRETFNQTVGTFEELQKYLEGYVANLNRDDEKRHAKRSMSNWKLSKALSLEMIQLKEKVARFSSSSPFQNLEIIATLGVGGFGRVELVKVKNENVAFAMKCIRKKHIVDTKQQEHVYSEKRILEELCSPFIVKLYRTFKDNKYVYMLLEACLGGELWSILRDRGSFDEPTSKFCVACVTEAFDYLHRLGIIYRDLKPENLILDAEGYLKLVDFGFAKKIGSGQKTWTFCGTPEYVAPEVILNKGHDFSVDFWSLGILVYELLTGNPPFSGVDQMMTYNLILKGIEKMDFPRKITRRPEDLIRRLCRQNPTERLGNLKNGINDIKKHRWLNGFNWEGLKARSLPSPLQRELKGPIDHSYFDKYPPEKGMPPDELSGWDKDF

[6] = target: Tyrosine-protein kinase receptor UFO (Homo sapiens) (UniProt P30530); conditions: Compound concentration 1000.0 nM
[7] = target: Atypical kinase COQ8B, mitochondrial (Homo sapiens) (UniProt Q96D53); conditions: Compound concentration 1000.0 nM
[8] = target: Ribosomal protein S6 kinase alpha-2 (Homo sapiens) (UniProt Q15349); conditions: Compound concentration 1000.0 nM
[9] = target: 3-phosphoinositide-dependent protein kinase 1 (Homo sapiens) (UniProt O15530); conditions: Compound concentration 1000.0 nM
[10] = target: Mitogen-activated protein kinase kinase kinase 12 (Homo sapiens) (UniProt Q12852); conditions: Compound concentration 1000.0 nM
[11] = target: Serine/threonine-protein kinase PLK3 (Homo sapiens) (UniProt Q9H4B4); conditions: Compound concentration 1000.0 nM
[12] = target: Protein kinase C theta type (Homo sapiens) (UniProt Q04759); conditions: Compound concentration 1000.0 nM
[13] = target: Ephrin type-A receptor 7 (Homo sapiens) (UniProt Q15375); conditions: Compound concentration 1000.0 nM
[14] = target: Serine/threonine-protein kinase 32C (Homo sapiens) (UniProt Q86UX6); conditions: Compound concentration 1000.0 nM
[15] = target: Mitogen-activated protein kinase 4 (Homo sapiens) (UniProt P31152); conditions: Compound concentration 1000.0 nM
Mitogen-activated protein kinase 4 (Homo sapiens), sequence (P31152 whole entry): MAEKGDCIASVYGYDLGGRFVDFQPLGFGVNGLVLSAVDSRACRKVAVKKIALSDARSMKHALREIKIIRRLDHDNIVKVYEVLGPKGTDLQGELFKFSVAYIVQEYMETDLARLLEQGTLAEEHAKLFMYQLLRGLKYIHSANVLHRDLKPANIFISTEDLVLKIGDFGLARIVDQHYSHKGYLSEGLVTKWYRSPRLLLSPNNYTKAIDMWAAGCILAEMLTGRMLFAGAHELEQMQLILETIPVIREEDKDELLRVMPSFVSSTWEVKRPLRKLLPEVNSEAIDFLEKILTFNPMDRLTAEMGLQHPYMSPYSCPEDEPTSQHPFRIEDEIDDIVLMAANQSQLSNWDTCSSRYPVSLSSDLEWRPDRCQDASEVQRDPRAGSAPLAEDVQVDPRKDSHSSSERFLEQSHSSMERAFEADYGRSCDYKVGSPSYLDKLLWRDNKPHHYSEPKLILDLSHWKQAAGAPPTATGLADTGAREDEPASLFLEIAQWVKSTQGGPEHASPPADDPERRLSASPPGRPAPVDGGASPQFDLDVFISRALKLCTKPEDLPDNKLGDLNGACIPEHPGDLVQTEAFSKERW

Alpha-1A adrenergic receptor (Homo sapiens), sequence (P35348 whole entry): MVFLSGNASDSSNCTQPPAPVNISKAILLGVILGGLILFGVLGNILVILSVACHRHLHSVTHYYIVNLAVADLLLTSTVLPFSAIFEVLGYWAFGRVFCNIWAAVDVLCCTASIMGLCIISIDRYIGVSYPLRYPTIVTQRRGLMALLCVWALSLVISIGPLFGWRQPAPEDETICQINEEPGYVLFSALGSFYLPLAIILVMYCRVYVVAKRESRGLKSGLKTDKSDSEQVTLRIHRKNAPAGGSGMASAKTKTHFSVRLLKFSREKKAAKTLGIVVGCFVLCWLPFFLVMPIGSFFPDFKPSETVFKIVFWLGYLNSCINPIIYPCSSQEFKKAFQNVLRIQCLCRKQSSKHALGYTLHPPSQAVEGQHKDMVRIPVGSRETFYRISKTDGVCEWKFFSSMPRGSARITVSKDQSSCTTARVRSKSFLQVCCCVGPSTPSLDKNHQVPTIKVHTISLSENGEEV
Ribosomal protein S6 kinase alpha-2 (Homo sapiens), sequence (Q15349 whole entry): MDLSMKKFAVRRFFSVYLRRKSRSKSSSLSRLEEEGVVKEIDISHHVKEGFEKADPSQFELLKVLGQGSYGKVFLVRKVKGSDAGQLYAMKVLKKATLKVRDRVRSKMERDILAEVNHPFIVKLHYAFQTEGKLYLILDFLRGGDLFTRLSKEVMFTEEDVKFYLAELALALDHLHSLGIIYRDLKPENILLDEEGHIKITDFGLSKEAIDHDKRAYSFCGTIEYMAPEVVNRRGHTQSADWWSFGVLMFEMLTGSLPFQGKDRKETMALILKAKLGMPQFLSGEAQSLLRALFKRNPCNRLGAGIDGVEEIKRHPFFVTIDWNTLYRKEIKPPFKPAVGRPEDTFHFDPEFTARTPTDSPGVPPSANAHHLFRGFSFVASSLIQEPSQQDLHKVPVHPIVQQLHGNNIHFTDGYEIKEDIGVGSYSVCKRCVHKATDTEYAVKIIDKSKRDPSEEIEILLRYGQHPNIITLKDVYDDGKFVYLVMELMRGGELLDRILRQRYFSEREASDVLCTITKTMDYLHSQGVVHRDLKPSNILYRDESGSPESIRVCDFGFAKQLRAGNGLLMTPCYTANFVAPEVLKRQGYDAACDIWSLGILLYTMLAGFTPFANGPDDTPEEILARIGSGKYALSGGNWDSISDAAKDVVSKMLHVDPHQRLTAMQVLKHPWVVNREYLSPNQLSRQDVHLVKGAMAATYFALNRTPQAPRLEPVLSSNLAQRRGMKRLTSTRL
Serine/threonine-protein kinase PLK3 (Homo sapiens), sequence (Q9H4B4 whole entry, looked up): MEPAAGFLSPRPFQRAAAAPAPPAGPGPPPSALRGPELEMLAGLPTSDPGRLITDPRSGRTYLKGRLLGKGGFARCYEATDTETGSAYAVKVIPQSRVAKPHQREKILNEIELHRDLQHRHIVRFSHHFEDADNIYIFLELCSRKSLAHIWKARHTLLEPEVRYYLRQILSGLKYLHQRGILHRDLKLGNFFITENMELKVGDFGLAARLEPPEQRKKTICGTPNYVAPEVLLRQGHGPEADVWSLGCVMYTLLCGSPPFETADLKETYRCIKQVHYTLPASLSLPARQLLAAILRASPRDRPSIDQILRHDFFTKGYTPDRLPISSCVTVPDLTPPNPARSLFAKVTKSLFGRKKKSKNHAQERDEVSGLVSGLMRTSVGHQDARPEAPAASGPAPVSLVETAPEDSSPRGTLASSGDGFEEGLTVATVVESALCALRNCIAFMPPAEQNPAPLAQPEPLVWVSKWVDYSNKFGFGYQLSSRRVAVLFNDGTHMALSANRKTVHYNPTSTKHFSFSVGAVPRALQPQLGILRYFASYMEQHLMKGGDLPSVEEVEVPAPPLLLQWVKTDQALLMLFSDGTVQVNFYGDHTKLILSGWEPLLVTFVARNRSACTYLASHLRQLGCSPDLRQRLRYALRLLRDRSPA
Serine/threonine-protein kinase 32C (Homo sapiens), sequence (Q86UX6 whole entry): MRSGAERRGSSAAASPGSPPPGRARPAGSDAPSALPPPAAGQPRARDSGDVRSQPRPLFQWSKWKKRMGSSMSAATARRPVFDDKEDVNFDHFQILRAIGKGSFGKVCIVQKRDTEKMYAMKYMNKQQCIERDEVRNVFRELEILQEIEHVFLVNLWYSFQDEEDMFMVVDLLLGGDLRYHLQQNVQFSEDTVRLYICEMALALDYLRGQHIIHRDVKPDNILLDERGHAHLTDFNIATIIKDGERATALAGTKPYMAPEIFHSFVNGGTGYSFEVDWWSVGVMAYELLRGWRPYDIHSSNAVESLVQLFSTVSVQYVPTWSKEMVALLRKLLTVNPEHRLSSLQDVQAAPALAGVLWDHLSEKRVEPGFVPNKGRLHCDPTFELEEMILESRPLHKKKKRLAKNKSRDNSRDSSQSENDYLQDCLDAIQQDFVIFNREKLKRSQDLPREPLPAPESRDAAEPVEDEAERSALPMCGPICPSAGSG
Cyclin-dependent kinase 15 (Homo sapiens), sequence (Q96Q40 whole entry): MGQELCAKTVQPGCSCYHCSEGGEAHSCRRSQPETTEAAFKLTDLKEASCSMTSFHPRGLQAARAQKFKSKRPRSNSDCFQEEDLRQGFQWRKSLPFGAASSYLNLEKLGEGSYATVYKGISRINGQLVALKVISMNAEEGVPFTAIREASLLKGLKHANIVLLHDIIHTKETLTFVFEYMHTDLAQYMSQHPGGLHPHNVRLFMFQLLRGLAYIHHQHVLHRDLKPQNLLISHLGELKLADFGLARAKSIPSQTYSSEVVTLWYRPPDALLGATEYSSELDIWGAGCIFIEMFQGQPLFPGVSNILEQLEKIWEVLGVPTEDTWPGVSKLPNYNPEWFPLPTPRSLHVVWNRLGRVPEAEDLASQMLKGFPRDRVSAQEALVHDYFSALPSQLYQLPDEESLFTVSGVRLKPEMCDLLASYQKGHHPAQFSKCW
Ephrin type-A receptor 7 (Homo sapiens), sequence (Q15375 28-998 limits assumed): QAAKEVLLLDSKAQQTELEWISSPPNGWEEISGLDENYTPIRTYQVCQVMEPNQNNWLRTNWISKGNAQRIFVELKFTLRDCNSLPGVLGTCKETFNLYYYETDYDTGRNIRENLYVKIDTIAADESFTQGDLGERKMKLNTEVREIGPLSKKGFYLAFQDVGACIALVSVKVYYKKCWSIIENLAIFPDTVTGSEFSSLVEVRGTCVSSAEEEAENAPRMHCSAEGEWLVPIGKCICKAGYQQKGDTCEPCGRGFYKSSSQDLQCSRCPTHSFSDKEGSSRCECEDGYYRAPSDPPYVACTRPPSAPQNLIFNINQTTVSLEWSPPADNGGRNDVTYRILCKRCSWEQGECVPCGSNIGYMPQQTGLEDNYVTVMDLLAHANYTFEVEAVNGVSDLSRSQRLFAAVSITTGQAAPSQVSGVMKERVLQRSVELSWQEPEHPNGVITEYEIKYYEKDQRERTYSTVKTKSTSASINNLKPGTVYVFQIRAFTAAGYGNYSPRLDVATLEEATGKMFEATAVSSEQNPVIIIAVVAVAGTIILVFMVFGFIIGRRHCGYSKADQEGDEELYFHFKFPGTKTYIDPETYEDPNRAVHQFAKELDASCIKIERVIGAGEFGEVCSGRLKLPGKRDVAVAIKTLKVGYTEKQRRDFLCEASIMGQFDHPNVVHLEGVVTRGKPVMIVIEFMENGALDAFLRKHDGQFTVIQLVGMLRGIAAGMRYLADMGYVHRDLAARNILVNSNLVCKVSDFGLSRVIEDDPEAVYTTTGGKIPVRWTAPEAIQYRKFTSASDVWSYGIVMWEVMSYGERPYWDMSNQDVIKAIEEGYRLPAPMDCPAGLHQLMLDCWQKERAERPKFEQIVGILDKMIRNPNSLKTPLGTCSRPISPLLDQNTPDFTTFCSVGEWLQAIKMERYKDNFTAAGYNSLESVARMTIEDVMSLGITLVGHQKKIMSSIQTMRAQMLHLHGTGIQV
Protein kinase C theta type (Homo sapiens), sequence (Q04759 whole entry, looked up): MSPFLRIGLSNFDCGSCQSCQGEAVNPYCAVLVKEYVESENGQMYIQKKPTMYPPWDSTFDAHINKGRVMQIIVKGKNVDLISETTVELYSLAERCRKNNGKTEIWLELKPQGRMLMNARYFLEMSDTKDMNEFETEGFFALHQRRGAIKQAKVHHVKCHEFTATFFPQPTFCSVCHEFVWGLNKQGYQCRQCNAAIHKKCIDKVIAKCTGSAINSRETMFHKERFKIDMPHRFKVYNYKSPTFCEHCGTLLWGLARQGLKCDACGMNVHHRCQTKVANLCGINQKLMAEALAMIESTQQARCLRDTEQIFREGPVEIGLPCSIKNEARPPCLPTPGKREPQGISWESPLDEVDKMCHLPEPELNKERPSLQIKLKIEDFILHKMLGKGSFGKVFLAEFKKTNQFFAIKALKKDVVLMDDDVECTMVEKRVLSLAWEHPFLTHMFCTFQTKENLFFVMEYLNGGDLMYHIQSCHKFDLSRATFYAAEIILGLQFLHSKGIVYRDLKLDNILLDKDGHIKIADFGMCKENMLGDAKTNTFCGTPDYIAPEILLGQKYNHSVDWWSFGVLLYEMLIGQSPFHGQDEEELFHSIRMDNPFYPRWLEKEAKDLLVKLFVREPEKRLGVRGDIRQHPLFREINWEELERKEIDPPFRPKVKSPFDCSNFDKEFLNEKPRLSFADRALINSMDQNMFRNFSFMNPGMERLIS

CN1CCN(c2cnc3c(C4CCN(C(=O)c5ccc(OC(F)(F)F)cc5N)CC4)ncnc3c2)CC1 [BAY-885]
inactive: residual activity [1] 100% | inhibition [2] 1.11% | residual activity [3] 100% | residual activity [4] 100% | residual activity [5] 77% | residual activity [6] 78% | residual activity [7] 100% | residual activity [8] 100% | residual activity [9] 85% | residual activity [10] 100% | residual activity [11] 100% | residual activity [12] 91% | residual activity [13] 100% | residual activity [14] 100% | residual activity [15] 100%

Cc1nc(C2CCN(C(=O)c3ccc(OC(F)(F)F)cc3N)CC2)c2ncc(N3CCN(C)CC3)cc2n1 [BAY-693]
inactive: residual activity [1] 100% | inhibition [2] -9.85% | residual activity [3] 100% | residual activity [4] 100% | residual activity [5] 74% | residual activity [6] 100% | residual activity [7] 93% | residual activity [8] 100% | residual activity [9] 93% | residual activity [10] 100% | residual activity [11] 100% | residual activity [12] 93% | residual activity [13] 92% | residual activity [14] 100% | residual activity [15] 91%
